This is an account of results in patent US12209081B2 (Katholieke Universiteit Leuven, priority 2020, dated 2025).

mouse TRPM3α2 (mTRPM3) ion channel, sequence (J9SQF3 other isoform, or with tags, fused parts or gaps): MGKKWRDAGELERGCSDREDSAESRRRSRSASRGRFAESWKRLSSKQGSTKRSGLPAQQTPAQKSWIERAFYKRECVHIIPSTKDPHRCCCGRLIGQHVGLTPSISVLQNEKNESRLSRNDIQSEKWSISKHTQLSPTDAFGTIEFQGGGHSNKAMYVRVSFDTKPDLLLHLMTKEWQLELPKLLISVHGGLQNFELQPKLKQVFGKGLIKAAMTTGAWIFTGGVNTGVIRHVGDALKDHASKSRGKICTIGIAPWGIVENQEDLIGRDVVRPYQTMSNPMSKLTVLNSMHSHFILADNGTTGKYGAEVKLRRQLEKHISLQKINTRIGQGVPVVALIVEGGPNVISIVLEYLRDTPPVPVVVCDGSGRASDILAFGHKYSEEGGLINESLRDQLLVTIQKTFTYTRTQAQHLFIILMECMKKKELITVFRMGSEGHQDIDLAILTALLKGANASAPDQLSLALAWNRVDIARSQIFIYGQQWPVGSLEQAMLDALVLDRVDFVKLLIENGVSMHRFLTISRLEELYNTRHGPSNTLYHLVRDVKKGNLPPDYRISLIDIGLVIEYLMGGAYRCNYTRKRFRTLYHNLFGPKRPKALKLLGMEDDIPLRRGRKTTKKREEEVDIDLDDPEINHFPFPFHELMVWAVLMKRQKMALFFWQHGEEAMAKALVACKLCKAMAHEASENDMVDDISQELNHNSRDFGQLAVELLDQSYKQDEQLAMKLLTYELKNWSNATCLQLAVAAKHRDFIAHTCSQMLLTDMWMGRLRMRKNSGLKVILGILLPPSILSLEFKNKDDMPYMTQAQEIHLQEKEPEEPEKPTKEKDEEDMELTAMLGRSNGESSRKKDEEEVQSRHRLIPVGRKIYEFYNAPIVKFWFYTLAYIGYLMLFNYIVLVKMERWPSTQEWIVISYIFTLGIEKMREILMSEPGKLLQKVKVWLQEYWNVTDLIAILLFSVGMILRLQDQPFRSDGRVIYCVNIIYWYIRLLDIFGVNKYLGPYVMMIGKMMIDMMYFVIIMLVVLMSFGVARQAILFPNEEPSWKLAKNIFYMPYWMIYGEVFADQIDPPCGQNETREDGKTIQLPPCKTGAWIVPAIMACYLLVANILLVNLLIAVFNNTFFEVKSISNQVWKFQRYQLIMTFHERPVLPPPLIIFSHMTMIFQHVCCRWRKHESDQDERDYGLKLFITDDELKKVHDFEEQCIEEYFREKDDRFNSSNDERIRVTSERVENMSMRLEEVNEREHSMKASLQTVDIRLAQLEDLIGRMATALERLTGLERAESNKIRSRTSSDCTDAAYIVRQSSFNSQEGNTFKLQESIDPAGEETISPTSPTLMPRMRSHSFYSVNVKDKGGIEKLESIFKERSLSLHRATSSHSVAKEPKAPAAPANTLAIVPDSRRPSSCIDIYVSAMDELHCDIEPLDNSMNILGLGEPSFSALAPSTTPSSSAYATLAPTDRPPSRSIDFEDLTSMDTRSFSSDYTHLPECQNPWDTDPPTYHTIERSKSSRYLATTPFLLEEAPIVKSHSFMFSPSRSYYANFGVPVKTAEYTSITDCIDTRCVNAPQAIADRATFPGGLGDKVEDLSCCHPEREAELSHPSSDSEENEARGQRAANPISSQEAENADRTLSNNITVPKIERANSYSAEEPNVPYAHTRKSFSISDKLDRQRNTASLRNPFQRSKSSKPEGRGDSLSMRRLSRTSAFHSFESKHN

This assay concerns the target mouse TRPM3α2 (mTRPM3) ion channel (Mus musculus (Mouse), UniProt J9SQF3). The assay is described as follows: TRPM3 ion channel driven Ca2+ uptake, Fluo-4 AM assay, mTRPM3alpha2 overexpressing flip-in HEK293 cells stimulated with pregnenolone sulfate. Format: cell-based. Conditions: PS (50 μM) stimulated, cpd 001-199. In a few lines: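 Read-out is Ca2+ influx via Fluo-4 AM fluorescence at 485/535 nm, taken right after seeding ~2000 cells/well onto compound with 50 μM PS. Inhibition computed from RFU between vehicle-stimulated and positive-control-inhibitor wells; cells were mTRPM3α2-overexpressing flip-in HEK293.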
As usually defined, the IC50 is the concentration that inhibits the measured activity by half. The low end stands for greater potency, the high end for weaker potency. In the case of `Cc1ncsc1COc1ccc2oc(C)c(C(=O)NC3(CO)CCOCC3)c2c1` [compound 054, N-(4-(hydroxymethyl)tetrahydro-2H-pyran-4-yl)-2-methyl-5-((4-methylthiazol-5-yl)methoxy)-benzofuran-3-carboxamide], the IC50 was < 1000 nM.

Consider `Cc1ncsc1COc1ccc2oc(C)c(C(=O)NC3CCNCC3(F)F)c2c1` (stereo not shown) [compound 056, N-(3,3-difluoropiperidin-4-yl)-2-methyl-5-((4-methylthiazol-5-yl)methoxy)benzofuran-3-carboxamide], for which the IC50 was < 1000 nM.

In the case of `Cc1oc2ccc(OCc3nc(C(F)(F)F)cs3)cc2c1C(=O)NC1CCOC1` (stereo not shown) [compound 057, 2-methyl-N-(tetrahydrofuran-3-yl)-5-((4-(trifluoromethyl)thiazol-2-yl)methoxy)benzofuran-3-carboxamide], the 50% inhibitory concentration (IC50) was > 20000 nM.

Take `COc1ncccc1COc1ccc2oc(C)c(C(=O)NC3(CO)CCOCC3)c2c1` [compound 058, N-(4-(hydroxymethyl)tetrahydro-2H-pyran-4-yl)-5-((2-methoxypyridin-3-yl)methoxy)-2-methyl-benzofuran-3-carboxamide]: the IC50 is < 1000 nM.

With `Cc1oc2ccc(OCc3ccc4cnccc4c3)cc2c1C(=O)NC1CCN(C)CC1` [compound 061, 5-(isoquinolin-6-ylmethoxy)-2-methyl-N-(1-methylpiperidin-4-yl)benzofuran-3-carboxamide], the concentration for half-maximal inhibition (IC50) is > 20000 nM.

Consider `Cc1oc2ccc(OCc3cccnc3C(F)(F)F)cc2c1C(=O)NC1CCNC1=O` (stereo not shown) [compound 064, 2-methyl-N-(2-oxopyrrolidin-3-yl)-5-((2-(trifluoromethyl)pyridin-3-yl)methoxy)benzofuran-3-carboxamide], for which the 50% inhibitory concentration (IC50) was < 1000 nM.

Take `Cc1oc2ccc(OCc3cccnc3Cl)cc2c1C(=O)NC1CCNCC1(F)F` (stereo not shown) [compound 067, 5-((2-chloropyridin-3-yl)methoxy)-N-(3,3-difluoropiperidin-4-yl)-2-methylbenzofuran-3-carboxamide]: the IC50 is < 1000 nM.

Take `Cc1oc2ccc(OCc3cnccc3Cl)cc2c1C(=O)NC1CCNCC1(F)F` (stereo not shown) [compound 068, 5-((4-chloropyridin-3-yl)methoxy)-N-(3,3-difluoropiperidin-4-yl)-2-methylbenzofuran-3-carboxamide]: the 50% inhibitory concentration (IC50) is < 1000 nM.

As for `Cc1oc2ccc(OCc3ccc4nccn4c3)cc2c1C(=O)NC1CCNCC1(F)F` (stereo not shown) [compound 070, N-(3,3-difluoropiperidin-4-yl)-5-(imidazo[1,2-a]pyridin-6-ylmethoxy)-2-methylbenzofuran-3-carboxamide], the IC50 is < 1000 nM.

As for `Cc1oc2ccc(OCc3cccc(N(C)C)n3)cc2c1C(=O)NC1CCNCC1(F)F` (stereo not shown) [compound 071, N-(3,3-difluoropiperidin-4-yl)-5-((6-(dimethylamino)pyridin-2-yl)methoxy)-2-methylbenzofuran-3-carboxamide], the concentration for half-maximal inhibition (IC50) was < 1000 nM.

For `Cc1oc2ccc(OCc3cccnc3C(F)(F)F)cc2c1C(=O)NC1(CO)CCOCC1` [compound 072, N-(4-(hydroxymethyl)tetrahydro-2H-pyran-4-yl)-2-methyl-5-((2-(trifluoromethyl)pyridin-3-yl) -methoxy)benzofuran-3-carboxamide], the IC50 is < 1000 nM.

With `Cc1oc2ccc(OCc3cncc(C(F)(F)F)c3)cc2c1C(=O)NC1CCNCC1(F)F` (stereo not shown) [compound 075, N-(3,3-difluoropiperidin-4-yl)-2-methyl-5-((5-(trifluoromethyl)pyridin-3-yl)methoxy)benzofuran-3-carboxamide], the IC50 was > 20000 nM.

As for `Cc1oc2ccc(OCc3cncc(C(F)(F)F)c3)cc2c1C(=O)N[C@H]1CCN(C(=O)OC(C)(C)C)C1` [compound 077, tert-butyl (S)-3-(2-methyl-5-((5-(trifluoromethyl)pyridin-3-yl)methoxy)benzofuran-3-carboxamido)pyrrolidine-1-carboxylate], the IC50 is > 20000 nM.

Take `Cc1ncsc1COc1ccc2oc(C)c(C(=O)NC(C)(C)CO)c2c1` [compound 104, N-(1-hydroxy-2-methylpropan-2-yl)-2-methyl-5-((4-methylthiazol-5-yl)methoxy)benzofuran-3-carboxamide]: the half-inhibitory concentration (IC50) is < 1000 nM.

In the case of `Cc1ncsc1COc1ccc2oc(C)c(C(=O)NC3(CO)CCC3)c2c1` [compound 107, N-(1-(hydroxymethyl)cyclobutyl)-2-methyl-5-((4-methylthiazol-5-yl)methoxy)benzofuran-3-carboxamide], the IC50 was < 1000 nM.

In the case of `Cc1ncsc1COc1ccc2oc(C)c(C(=O)NC3(CN(C)C)CCC3)c2c1` [compound 108, N-(1-((dimethylamino)methyl)cyclobutyl)-2-methyl-5-((4-methylthiazol-5-yl)methoxy)benzofuran-3-carboxamide], the IC50 is < 1000 nM.

`Cc1oc2ccc(OCc3cccnc3C(F)(F)F)cc2c1C(=O)NC(C)(C)CO` [compound 109, N-(1-hydroxy-2-methylpropan-2-yl)-2-methyl-5-((2-(trifluoromethyl)pyridin-3-yl)methoxy)benzofuran-3-carboxamide]: the concentration for half-maximal inhibition (IC50) was < 1000 nM.

In the case of `Cc1ncsc1COc1ccc2oc(C)c(C(=O)NC3(CCO)CCC3)c2c1` [compound 114, N-(1-(2-hydroxyethyl)cyclobutyl)-2-methyl-5-((4-methylthiazol-5-yl)methoxy)benzofuran-3-carboxamide], the IC50 was < 1000 nM.

In the case of `Cc1oc2ccc(OCc3cccnc3C(F)(F)F)cc2c1C(=O)NC1(CO)CCC1` [compound 117, N-(1-(hydroxymethyl)cyclobutyl)-2-methyl-5-((2-(trifluoromethyl)pyridin-3-yl)methoxy)benzofuran-3-carboxamide], the IC50 was < 1000 nM.

As to `Cc1ncsc1COc1ccc2oc(C)c(C(=O)NC3(C(N)=O)COC3)c2c1` [compound 119, N-(3-carbamoyloxetan-3-yl)-2-methyl-5-((4-methylthiazol-5-yl)methoxy)benzofuran-3-carboxamide], the IC50 was < 1000 nM.

For the compound `Cc1oc2ccc(OCc3cccnc3C(F)(F)F)cc2c1C(=O)NC1(CCO)CCC1` [compound 127, N-(1-(2-hydroxyethyl)cyclobutyl)-2-methyl-5-((2-(trifluoromethyl)pyridin-3-yl)methoxy)benzo-furan-3-carboxamide], the IC50 was < 1000 nM.

On to `Cc1ncsc1COc1ccc2oc(C)c(C(=O)NC3(CCO)COC3)c2c1` [compound 128, N-(3-(2-hydroxyethyl)oxetan-3-yl)-2-methyl-5-((4-methylthiazol-5-yl)methoxy)benzofuran-3-carboxamide], for which the IC50 was < 1000 nM.

As to `Cc1oc2ccc(OCc3cccnc3C(F)(F)F)cc2c1C(=O)NC1(CCO)COC1` [compound 129, N-(3-(2-hydroxyethyl)oxetan-3-yl)-2-methyl-5-((2-(trifluoromethyl)pyridin-3-yl)methoxy) -benzofuran-3-carboxamide], the IC50 was < 1000 nM.

For `Cc1oc2ccc(OCc3cccnc3C(F)(F)F)cc2c1C(=O)NC1(CN)CCC1` [compound 136, N-(1-(aminomethyl)cyclobutyl)-2-methyl-5-((2-(trifluoromethyl)pyridin-3-yl)methoxy)benzofuran-3-carboxamide], the half-inhibitory concentration (IC50) was < 1000 nM.

Regarding `Cc1ncsc1COc1ccc2oc(C)c(C(=O)NC3(CO)CC3)c2c1` [compound 139, N-(1-(hydroxymethyl)cyclopropyl)-2-methyl-5-((4-methylthiazol-5-yl)methoxy)benzofuran-3-carboxamide], the concentration for half-maximal inhibition (IC50) was < 1000 nM.
